≈ marks a conversion by molar mass, not a printed value. Where two headings read alike, the source gives them in different places.
Tests used:
[1] = tested on: DNA synthesis in B16-F10 melanoma cells; assay: Inhibition of macromolecule synthesis in B16-F10 melanoma cells: DNA; type: cell-based, murine; conditions: for IC50: Mus musculus, B16-F10, 3H-thymidine, 3.5 hours
Procedure: (§1) Inhibitory effects of BU-4146T on the macromolecule (DNA, RNA and protein) synthesis were determined in cultured B16-FlO melanoma cells. B16-FlO cells (10^5 cells/ml) were incubated with the compound at 37° C. for 3.5 hours (for DNA synthesis) or 4 hours (for RNA and protein synthesis). Labelled presursor, ^3 H-thymidine, ^14 C-uridine or ^3 H-leucine was added to the culture and further incubated for 30 minutes (for DNA) or 60 minutes (for RNA and protein). After washing with chilled 5% trichloroacetic acid solution, the radio activity incorporated into the acid-insoluble fraction of the tumor cells was determined by a liquid scintillation counter.

[2] = tested on: B16-F10 (murine melanoma) cells; assay: In vitro cytotoxicity; type: cell-based; conditions: Mus musculus; B16-F10, 72 hours
Procedure: (§2) B16-FIO, Moser and HCT-116 cells were harvested and implanted into wells of 96-well microtiter plate with test materials at the inoculum sizes of 3×10^4, 6×10^4 and 6×10^4 cell/ml, respectively. They were incubated at 37° C. in a humidified atmosphere of 5% carbon dioxide and 95% air for 72 hours. The cytotoxicity against the tumor cells was determined colorimetrically at 540 nm after staining viable cells.

[3] = tested on: HCT-116 (human colon carcinoma) cells; assay: In vitro cytotoxicity; type: cell-based; conditions: HCT-116, 72 hours
Procedure: as §2

[4] = tested on: Moser (human colorectal carcinoma) cells; assay: In vitro cytotoxicity; type: cell-based; conditions: 72 hours
Procedure: as §2

Solubility = type: physicochemical
Piricularia oryzae = assay: microbe, parasite or virus in culture; type: cell-based
[5] = tested on: protein synthesis in B16-F10 melanoma cells; assay: Inhibition of macromolecule synthesis in B16-F10 melanoma cells: protein; type: cell-based, murine; conditions: Mus musculus, 3H-leucine, 4 hours
Procedure: as §1

[6] = tested on: RNA synthesis in B16-F10 melanoma cells; assay: Inhibition of macromolecule synthesis in B16-F10 melanoma cells: RNA; type: cell-based, murine; conditions: Mus musculus, 14C-uridine, 4 hours
Procedure: as §1

fungi = assay: Antifungal activity as a whole (serial agar dilution); type: cell-based; conditions: versus streptimidone
Procedure: (§3) The minimum inhibitory concentrations (MICs) of BU-4146T were determined against various bacteria and fungi by the serial agar dilution method. Nutrient agar (Eiken) was used for bacteria and Sabouraud dextrose agar (Difco) for fungi. The inoculum size was adjusted to 10^2 -10^4 cfu/ml for bacteria and 10^3 cfu/ml for fungi.

Fusarium moniliforme = assay: Antifungal MIC by serial agar dilution method; type: cell-based; conditions: Fusarium verticillioides; strain A2284
Procedure: as §3

[7] = tested on: Trichophyton mentagrophytes; assay: Antifungal MIC by serial agar dilution method; type: cell-based
Procedure: as §3

Sporothrix schenckii = assay: Antifungal MIC by serial agar dilution method; type: cell-based; conditions: strain IF08158
Procedure: as §3

Candida albicans = assay: Antifungal MIC by serial agar dilution method; type: cell-based
Procedure: as §3

Aspergillus flavus = assay: Antifungal MIC by serial agar dilution method; type: cell-based; conditions: strain FA21436
Procedure: as §3

Aspergillus fumigatus = assay: Antifungal MIC by serial agar dilution method; type: cell-based
Procedure: as §3

Mucor spinosus = assay: Antifungal MIC by serial agar dilution method; type: cell-based; conditions: strain IF05317
Procedure: as §3

Cryptococus neoformans = assay: Antifungal MIC by serial agar dilution method; type: cell-based; conditions: Cryptococcus neoformans
Procedure: as §3

Blastomyces dermatidis = assay: Antifungal MIC by serial agar dilution method; type: cell-based; conditions: strain IF08144
Procedure: as §3

Petriellidium boydii = assay: Antifungal MIC by serial agar dilution method; type: cell-based; conditions: Scedosporium boydii; strain IF08078
Procedure: as §3

[8] = tested on: murine and human tumor cells (B16-F10, Moser, HCT-116); assay: In vitro cytotoxicity, comparison over the tumor cell lines; type: cell-based; conditions: versus mitomycin C; approximately
Procedure: as §2

Gram-negative bacteria = assay: Antibacterial activity by serial agar dilution method; type: cell-based; conditions: at 100 mcg/ml
Procedure: as §3

Gram-positive bacteria = assay: as above; type: cell-based; conditions: at 100 mcg/ml
Procedure: as §3

[9] = Cytotoxicity of hydrogenated derivative; type: cell-based
[10] = Trichophyton mentagrophytes, strain D155, read-out: MIC

SMILES: C/C(=C\C(C)C(=O)CC(O)CC1CC(=O)NC(=O)C1)C1OC(=O)/C=C/CC/C=C/C=C\C1C (stereo not shown) [BU-4146T]
- IC50 [1]: 0.023 µg/mL (≈ 0.0503 µM)
- potency in DNA and protein synthesis, times higher than in RNA synthesis ([1]; in terms of IC50, DNA and protein versus RNA): ~200 times
- IC50 [2]: 0.03 µg/mL (≈ 0.0656 µM)
- IC50 [3]: 0.014 µg/mL (≈ 0.0306 µM)
- IC50 [4]: 0.047 µg/mL (≈ 0.103 µM)
- solubility in n-hexane (Solubility; n-hexane): practically insoluble
- solubility in acetonitrile, n-butanol, methanol, ethyl acetate, chloroform and dimethyl sulfoxide (Solubility; organic solvents): readily soluble
- solubility in water (Solubility; water): practically insoluble
- MIC (Piricularia oryzae): 3.1 µg/mL (≈ 6.77 µM)
- IC50 [5]: 0.024 µg/mL (≈ 0.0525 µM)
- IC50 [6]: 4.2 µg/mL (≈ 9.18 µM)
- antifungal activity, times more potent than streptimidone (fungi): 30-100 times
- MIC (Fusarium moniliforme): 0.8 µg/mL (≈ 1.75 µM)
- MIC [7, 10]: 100 µg/mL (≈ 219 µM)
- MIC ([7]; strain No. 4329): 100 µg/mL (≈ 219 µM)
- MIC (Sporothrix schenckii): 100 µg/mL (≈ 219 µM)
- MIC (Candida albicans; strain A9540): > 100 µg/mL
- MIC (Candida albicans; strain IAM4888): > 100 µg/mL
- MIC (Aspergillus flavus): 3.1 µg/mL (≈ 6.77 µM)
- MIC (Aspergillus fumigatus; strain IAM2034): 1.6 µg/mL (≈ 3.5 µM)
- MIC (Aspergillus fumigatus; strain IAM2530): 0.8 µg/mL (≈ 1.75 µM)
- MIC (Mucor spinosus): 1.6 µg/mL (≈ 3.5 µM)
- MIC (Cryptococus neoformans; strain D49): 3.1 µg/mL (≈ 6.77 µM)
- MIC (Cryptococus neoformans; strain IAM4514): 3.1 µg/mL (≈ 6.77 µM)
- MIC (Blastomyces dermatidis): 12.5 µg/mL (≈ 27.3 µM)
- MIC (Petriellidium boydii): 3.1 µg/mL (≈ 6.77 µM)
- IC50 values, times superior to those of mitomycin C [8]: 20-60 times
- inhibitory activity against Gram-negative bacteria (Gram-negative bacteria): did not show inhibitory activity
- inhibitory activity against Gram-positive bacteria (Gram-positive bacteria): did not show inhibitory activity

SMILES: CO[C@@]12[C@H](COC(N)=O)C3=C(C(=O)C(C)=C(N)C3=O)N1C[C@@H]1N[C@@H]12 [Mitomycin C, reference compound]
- IC50 [1]: 1.6 µg/mL (≈ 4.79 µM)
- IC50 [5]: 60 µg/mL (≈ 179 µM)
- IC50 [6]: 11 µg/mL (≈ 32.9 µM)

SMILES: C=C/C(C)=C/[C@H](C)C(=O)C[C@H](O)CC1CC(=O)NC(=O)C1 [Streptimidone, reference compound]
- MIC (Piricularia oryzae; read-out: MIC): > 100 µg/mL
- MIC (Fusarium moniliforme): 50 µg/mL (≈ 170 µM)
- MIC [7, 10]: > 100 µg/mL
- MIC ([7]; strain No. 4329): > 100 µg/mL
- MIC (Sporothrix schenckii): > 100 µg/mL
- MIC (Candida albicans; strain A9540): > 100 µg/mL
- MIC (Candida albicans; strain IAM4888): > 100 µg/mL
- MIC (Aspergillus flavus): > 100 µg/mL
- MIC (Aspergillus fumigatus; strain IAM2034): > 100 µg/mL
- MIC (Aspergillus fumigatus; strain IAM2530): > 100 µg/mL
- MIC (Mucor spinosus): > 100 µg/mL
- MIC (Cryptococus neoformans; strain D49): 50 µg/mL (≈ 170 µM)
- MIC (Cryptococus neoformans; strain IAM4514): 50 µg/mL (≈ 170 µM)
- MIC (Blastomyces dermatidis): > 100 µg/mL
- MIC (Petriellidium boydii): > 100 µg/mL

SMILES: C/C(=C\C(C)C(=O)CC(O)CC1CC(=O)NC(=O)C1)C1OC(=O)CCCCCCCCC1C (stereo not shown) [hexahydro-BU-4146T]
- cytotoxicity ([9]; in words): weak cytotoxicity
- cytotoxicity, times weaker than that of BU-4146T ([9]; versus BU-4146T): about one hundred
